In patent US9493485B2, “Spirocyclic dihydro-thiazine and dihydro-oxazine BACE inhibitors, and compositions and uses thereof” (Imago Pharmaceuticals, Inc., priority 2012, dated 2016):
pIC50: −log10 of the molar value. Like-named read-outs stand apart in the source and are kept apart here.

What was measured:
[1] = system: BACE1 inhibition in HEKp293 cells transfected with APP751 gene (SWE293); assay: SWE293 cellular assay: reduction of Aβ peptide production, ELISA; type: cell-based; details: Homo sapiens, read-out: SWE293 ED50
Procedure: BACE1 inhibition is also assessed in a cellular assay. HEKp293 cells transfected with APP751 gene (SWE293, American Type Culture Collection CRL-1563) are used to assess compounds for reduction in levels of Aβ peptide production. SWE293 cell medium is DMEM supplemented with 10% fetal bovine serum and 2 mM L-glutamine, 1.0 mM sodium pyruvate, 25 mM Hepes Buffer, 0.4 mg/mL geneticin (G418, Gibco BRL 860-181IIJ). Cells are maintained diluting 1:10 for 4 days in T-150 flask and 35 mL of cell media. For plating, cells are rinsed with 5 mL of 1×PBS, trypsinized with 4 mL of 0.05% Tripsin for 1 minute, and 12 mL of cell media is added. These are centrifuged at 1000 rpm for 4 minutes and the media aspirated, then 8 mL of media per flask is added. Based on cell count, appropriate amounts of cell and cell media are combined, and 180 μl per well are plated (96 well) and the plates are incubated overnight at 37° C., 5% CO2. Compounds to be tested are serially diluted 1:3 in DMSO and twice in media (without G418) in V-bottom plates and incubated at room temperature. Plated cells are washed with media, 3×50 μL per well and 17 μL per well of appropriate dilution of compound is added. Plates are incubated for 2 hours, and the wash steps, compound addition and incubation are repeated. Sample is transferred to capture plate (prepared with 266 antibody, see e.g. Johnson-Wood et al., PNAS February 1997, 94: 1550-1555), along with a standard curve of Aβ-40. ELISA assay is used to assess Aβ levels, washing with TBS, 0.05% Tween20 pH 7.5, then adding 1.3 mg/mL 3D6 antibody 1:900 in specimen diluents with thimericol is added (100 μl per well) and incubated for 1 hour. Wash step is repeated and Streptavidin-AP diluted 1:1000 in specimen diluents with thimerisol is added (100 μL per well) and incubated for 1 hour. Wash step is repeated and fluorescent substrate is added, 100 μL per well and incubated for 10 minutes followed by reading the fluorescent signal on a plate reader.

[2] = biological target: T1, BACE1 (Homo sapiens (Human), UniProt P56817); assay: BACE1 AlphaScreen assay (displacement of biotinylated BACE1 binding site probe); details: read-out: BACE1 AS IC50
Procedure: (§1) BACE1 activity can be assessed in an AlphaScreen® assay. Compounds to be assessed (e.g. compounds as described in the above examples) are serially diluted 1:4 in DMSO, then plated by diluting 10 μL of compound with 40 μl of assay buffer (1×PBS, 0.01% Tween-20, pH 7.0, 0.05% BSA). The diluted compound is transferred (4 μL per well) to a 386 well assay plate and 4 μL of BACE1 enzyme ([…]) is added and incubated for 15 minutes. This assay uses a probe that is a BACE1 binding sight ligand linked to biotin, which can be displaced by test compound dependent on compound binding affinity. This of biotinylated probe (4 μL) is added and incubated for 1 hour, followed with 4 μL of donor and acceptor bead mixture and incubated for 2 hours. The fluorescent signal is read on a plate reader and the value as a function of compound concentration is used to determine the IC50. Compounds are also assessed for BACE1 and Cathepsin D activity using an FP Assay. Compounds to be assessed (e.g. compounds as described in the above examples) are serially diluted 1:3 with DMSO and each concentration point is transferred to a 96 well plate, 6 μL per well, followed by addition of 194 μL of assay buffer (100 mM sodium acetate, pH 4.5 with 0.001% Tween-20). A 10 μL compound sample from this plate is transferred to a well of a 384 well plate and combined with 10 μL per well of BACE1 enzyme (0.3 nM in assay buffer) or Cathepsin D enzyme (1.8 nM in assay buffer) and the plate is incubated at room temperature for 30 minutes.

[3] = biological target: T1, BACE1; assay: BACE1 FP assay; type: biochemical; details: pH 4.5
Procedure: as §1

[4] = biological target: Cathepsin D (Homo sapiens (Human), UniProt P07339); assay: Cathepsin D FP assay; type: biochemical; details: pH 4.5, read-out: CatD FP IC50
Procedure: as §1

[5] = dose at which Aβ level is reduced by 50%, HEKp293 SWE293 cells

T1 sequence (P56817 46-501): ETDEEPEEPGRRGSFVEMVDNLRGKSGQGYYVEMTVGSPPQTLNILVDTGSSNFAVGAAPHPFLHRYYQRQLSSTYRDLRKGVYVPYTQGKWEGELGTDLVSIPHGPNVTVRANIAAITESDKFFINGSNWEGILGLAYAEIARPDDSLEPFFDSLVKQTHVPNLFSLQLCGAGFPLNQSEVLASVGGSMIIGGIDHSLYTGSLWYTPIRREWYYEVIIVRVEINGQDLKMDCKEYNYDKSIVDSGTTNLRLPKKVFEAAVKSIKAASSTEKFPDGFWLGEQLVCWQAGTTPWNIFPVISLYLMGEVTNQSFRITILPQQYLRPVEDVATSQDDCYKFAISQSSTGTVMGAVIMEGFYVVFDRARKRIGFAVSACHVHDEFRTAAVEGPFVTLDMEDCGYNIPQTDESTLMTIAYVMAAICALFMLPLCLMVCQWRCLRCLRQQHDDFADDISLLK
Chain of Cathepsin D (P07339 65-412, species assumed): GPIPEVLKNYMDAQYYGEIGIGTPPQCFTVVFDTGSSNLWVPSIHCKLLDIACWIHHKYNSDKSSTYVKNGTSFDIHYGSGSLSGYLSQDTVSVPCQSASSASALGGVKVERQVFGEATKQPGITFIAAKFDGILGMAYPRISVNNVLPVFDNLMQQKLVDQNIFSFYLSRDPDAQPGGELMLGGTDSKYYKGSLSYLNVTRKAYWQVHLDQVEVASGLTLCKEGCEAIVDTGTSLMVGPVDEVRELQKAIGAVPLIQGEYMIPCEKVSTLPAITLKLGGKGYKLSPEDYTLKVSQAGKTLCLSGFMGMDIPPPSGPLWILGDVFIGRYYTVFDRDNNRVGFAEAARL

| SMILES | pIC50 [1, 5] | pIC50 [2] | pIC50 [3] | pIC50 [4] | pIC50 [1] |
| --- | --- | --- | --- | --- | --- |
| CCCn1cc(-c2ccc(F)c(C3(C)CC4(CCOCC4)OC(N)=N3)c2)cn1 (stereo not shown) [Compound 8-107, 4-(2-fluoro-5-(1-propyl-1H-pyrazol-4-yl)phenyl)-4-methyl-1,9-dioxa-3-azaspiro[5.5]undec-2-en-2-amine] | 5.76 | 5.78 | 4.47 | 4.68 | – |
| CC#Cc1cncc(-c2cc([C@]3(C)CC4(CCOCC4)OC(N)=N3)sc2C)c1 [Compound 8-108, (S)-4-methyl-4-(5-methyl-4-(5-(prop-1-ynyl)pyridin-3-yl)thiophen-2-yl)-1,9-dioxa-3-azaspiro[5.5]undec-2-en-2-amine] | 6.31 | 7.76 | 5.95 | 5.03 | – |
| CC#Cc1cncc(-c2csc(C3(C)CC4(CCC(F)(F)CC4)OC(N)=N3)c2)c1 (stereo not shown) [Compound 8-109, 9,9-difluoro-4-methyl-4-(4-(5-(prop-1-ynyl)pyridin-3-yl)thiophen-2-yl)-1-oxa-3-azaspiro[5.5]undec-2-en-2-amine] | 6.21 | 7.17 | 5.94 | 5.20 | – |
| CC#Cc1cncc(-c2csc([C@]3(C)CC4(CCC(F)(F)CC4)OC(N)=N3)c2)c1 [Compound 8-110, (S)-9,9-difluoro-4-methyl-4-(4-(5-(prop-1-ynyl)pyridin-3-yl)thiophen-2-yl)-1-oxa-3-azaspiro[5.5]undec-2-en-2-amine] | 6.52 | 7.59 | 6.02 | 5.25 | – |
| CC#Cc1cncc(-c2ccc(F)c([C@]3(C)CC4(CCC4)OC(N)=N3)c2)c1 [Compound 8-111, (S)-8-(2-fluoro-5-(5-(prop-1-ynyl)pyridin-3-yl)phenyl)-8-methyl-5-oxa-7-azaspiro[3.5]non-6-en-6-amine] | 6.41 | 7.06 | 5.45 | 5.29 | – |
| CC#Cc1cncc(-c2csc(C3(C)CC4(CCOCC4)SC(N)=N3)c2)c1 (stereo not shown) [Compound 8-113, 4-methyl-4-(4-(5-(prop-1-ynyl)pyridin-3-yl)thiophen-2-yl)-9-oxa-1-thia-3-azaspiro[5.5]undec-2-en-2-amine] | 6.74 | > 8.15 | 6.80 | 5.73 | – |
| CC#Cc1cncc(-c2csc(C3(C)N=C(N)OC4(CCOCC4)C3(F)F)c2)c1 (stereo not shown) [Compound 8-114, 5,5-difluoro-4-methyl-4-(4-(5-(prop-1-ynyl)pyridin-3-yl)thiophen-2-yl)-1,9-dioxa-3-azaspiro[5.5]undec-2-en-2-amine] | 5.67 | 6.66 | 6.20 | 5.26 | – |
| CC1(c2cc(NC(=O)c3ccc(F)cn3)ccc2F)CC2(CCOCC2)OC(N)=N1 (stereo not shown) [Compound 9-120, N-(3-(2-amino-4-methyl-1,9-dioxa-3-azaspiro[5.5]undec-2-en-4-yl)-4-fluorophenyl)-5-fluoropicolinamide] | 7.89 | 7.72 | 6.55 | < 4.52 | – |
| CC1(c2cc(NC(=O)c3ccc(Cl)cn3)ccc2F)CC2(CCOCC2)OC(N)=N1 (stereo not shown) [Compound 9-121, N-(3-(2-amino-4-methyl-1,9-dioxa-3-azaspiro[5.5]undec-2-en-4-yl)-4-fluorophenyl)-5-chloropicolinamide] | – | 8.05 | 7.14 | < 4.52 | 8.22 |
| C[C@@]1(c2cc(NC(=O)c3ccc(Cl)cn3)ccc2F)CC2(CCOCC2)OC(N)=N1 [Compound 9-122, (S)—N-(3-(2-amino-4-methyl-1,9-dioxa-3-azaspiro[5.5]undec-2-en-4-yl)-4-fluorophenyl)-5-chloropicolinamide] | – | 7.92 | 7.23 | < 4.52 | 8.40 |
| C[C@@]1(c2cc(NC(=O)c3ccc(F)cn3)ccc2F)CC2(CCC(F)(F)CC2)OC(N)=N1 [Compound 9-123, (S)—N-(3-(2-amino-9,9-difluoro-4-methyl-1-oxa-3-azaspiro[5.5]undec-2-en-4-yl)-4-fluorophenyl)-5-fluoropicolinamide] | 7.72 | 8.06 | 6.57 | < 4.52 | – |
| C[C@@]1(c2cc(NC(=O)c3ccc(Cl)cn3)ccc2F)CC2(CCC(F)(F)CC2)OC(N)=N1 [Compound 9-124, (S)—N-(3-(2-amino-9,9-difluoro-4-methyl-1-oxa-3-azaspiro[5.5]undec-2-en-4-yl)-4-fluorophenyl)-5-chloropicolinamide] | 7.96 | 8.35 | 7.22 | < 4.52 | – |
| CC1(c2cc(NC(=O)c3ccc(F)cn3)ccc2F)CC2(CCC2)OC(N)=N1 (stereo not shown) [Compound 9-125, N-(3-(6-amino-8-methyl-5-oxa-7-azaspiro[3.5]non-6-en-8-yl)-4-fluorophenyl)-5-fluoropicolinamide] | 7.17 | 7.54 | 6.44 | < 4.52 | – |
| C[C@@]1(c2cc(NC(=O)c3ccc(F)cn3)ccc2F)CC2(CCC2)OC(N)=N1 [Compound 9-126, (S)—N-(3-(6-amino-8-methyl-5-oxa-7-azaspiro[3.5]non-6-en-8-yl)-4-fluorophenyl)-5-fluoropicolinamide] | 7.10 | 7.96 | 6.49 | < 4.52 | – |
| C[C@]1(c2cc(NC(=O)c3ccc(F)cn3)ccc2F)CC2(CCC2)OC(N)=N1 [Compound 9-127, (R)—N-(3-(6-amino-8-methyl-5-oxa-7-azaspiro[3.5]non-6-en-8-yl)-4-fluorophenyl)-5-fluoropicolinamide] | < 5.00 | 5.88 | 5.13 | < 4.52 | – |
| C[C@@]1(c2cc(NC(=O)c3ccc(F)cn3)ccc2F)CC2(CCOCC2)OC(N)=N1 [Compound 9-128, (S)—N-(3-(2-amino-4-methyl-1,9-dioxa-3-azaspiro[5.5]undec-2-en-4-yl)-4-fluorophenyl)-5-fluoropicolinamide] | 8.05 | 8.40 | 6.95 | < 4.52 | – |
| C[C@@]1(c2cc(NC(=O)c3ccc(Cl)cn3)ccc2F)CC2(CCC2)OC(N)=N1 [Compound 9-129, (S)—N-(3-(6-amino-8-methyl-5-oxa-7-azaspiro[3.5]non-6-en-8-yl)-4-fluorophenyl)-5-chloropicolinamide] | 7.43 | 8.08 | 6.97 | < 4.52 | – |
| C[C@@]1(c2cc(NC(=O)c3ccc(C#N)cn3)ccc2F)CC2(CCC2)OC(N)=N1 [Compound 9-130, (S)—N-(3-(6-amino-8-methyl-5-oxa-7-azaspiro[3.5]non-6-en-8-yl)-4-fluorophenyl)-5-cyanopicolinamide] | 8.27 | 8.22 | 7.34 | < 4.52 | – |
| C[C@@]1(c2cc(NC(=O)c3ncc(Cl)cc3F)ccc2F)CC2(CCC2)OC(N)=N1 [Compound 9-131, (S)—N-(3-(6-amino-8-methyl-5-oxa-7-azaspiro[3.5]non-6-en-8-yl)-4-fluorophenyl)-5-chloro-3-fluoropicolinamide] | 7.34 | 8.24 | 7.06 | < 4.52 | – |
